{"source": "patent US20030162751A1", "about": "“Pharmaceutical composition comprising 5' monophosphate ester of riboflavin and solubilized riboflavin” (priority 2001, published 2003)", "key": {"[1]": {"assay": "Solubility of riboflavin as a function of pH and % FMN", "type": "physicochemical", "from_the_text": "The intrinsic solubility of riboflavin is approximately 70 mcg/ml (see plot below with no FMN present). Precipitation is expected to occur if riboflavin reaches a level above this (due to riboflavin in drug substance or due to degradation to riboflavin with time), and precipitation would be unacceptable for patient safety with intravenous use.\nSolubility of Riboflavin as a function of pH and % FMN [formula]\nAt 1% FMN, up to 365 mcg/ml of riboflavin can dissolve."}, "[2]": {"assay": "Solubilization of lumichrome in the FMN formulation", "type": "physicochemical", "details": "in the current FMN formulation"}}, "note": "Read-outs that look alike come from different tables or passages of the source."}
{"compound": "Cc1cc2nc3c(=O)[nH]c(=O)nc-3n(C[C@H](O)[C@H](O)[C@H](O)CO)c2cc1C", "note": "[riboflavin]", "values": [{"measurement": "solubility", "setting": "[1]; 1% FMN solution, aqueous with cosolvent or surfactant or cyclodextrin, read-out: riboflavin solubility (amount that can dissolve)", "result": "≤ 365", "unit": "µg/mL"}, {"measurement": "solubility", "setting": "[1]; 5% FMN solution, aqueous with cosolvent or surfactant or cyclodextrin, 5% FMN, pH 7-8, read-out: riboflavin solubility (amount that can dissolve)", "result": "≤ 1320", "unit": "µg/mL"}, {"measurement": "intrinsic (equilibrium) solubility of riboflavin", "setting": "[1]; no FMN present", "result": "approximately 70 mcg/ml"}, {"measurement": "solubility", "setting": "[1]; no FMN present, read-out: intrinsic (equilibrium) solubility of riboflavin", "result": "~70", "unit": "µg/mL"}]}
{"compound": "Cc1cc2nc3[nH]c(=O)[nH]c(=O)c3nc2cc1C", "note": "[lumichrome]", "values": [{"measurement": "solubility of lumichrome relative to equilibrium solubility", "setting": "[2]", "result": "dissolve at levels above the equilibrium solubility"}]}
